Data as given in US12144819B2, “Pharmaceutical composition and use” (SpineThera, priority 2012, dated 2024).

How the values were obtained:
[1] = In-vitro elution of the API from the microparticles in PBS; format: physicochemical
Method: In-vitro elution of the API from the microparticles can be determined by adding a known amount of the microparticles to 5 mL phosphate buffered saline (PBS) solution at a pH 7.4, and maintaining a constant temperature of 37° C. At selected time intervals, a 2 mL aliquot can be withdrawn through a 0.4 μm filter for analysis; the amount of the aliquot withdrawn can be replenished with an equal amount of preheated PBS. The concentration of the API in the aliquot can be determined according to known methods such as HPLC. Sampling intervals can be adjusted to maintain drug concentration below sink conditions in the test vials.

[2] = Epidural administration in canine subjects using fluoroscopically-guided injection; format: in vivo, beagles; conditions: for drug released in-vivo (elution profile): procedure A1 microparticles
Source text: This exemplary approach is a modified version of that described by Cohen (vide supra). Male and female beagles can be acclimated and subjected to baseline neurologic and clinical chemistry examinations. Prior to treatment dogs can be anesthetized with propofol. The injection site can be shaved, and a 19-gauge epidural Touhy needle can be inserted at the L6-7 or L7-S1 interspace. A 22-gauge catheter can be threaded 8-10 cm to approximately the L2-L3 level. The position of the catheter can be verified by injection of contrast media under fluoroscopy. Two (2) mL of an aqueous suspension of microparticles, prepared according to procedure A1 above, can be injected over a period of about 2 minutes. After about 10 minutes the catheter can be removed. Before and after surgery, subject baseline measurements can be obtained, including, for example, temperature and specific behavioral measures (pain tolerance, reflex, mobility, etc.). Before injection, and every 2 days after injection for 84 days, heart rate, blood pressure in the tail, spinal reflexes, sensory and pain responses, proprioception, gait and movement, cranial nerve function, and fundoscopic examination data can be recorded to observe the safety of the injected pharmaceutical composition. Blood samples can be collected prior to injection, then at 1, 2, 4, 8, 24, and 72 hour intervals after injection, and every 7 days thereafter to analyze for the pharmaceutical agent and its metabolized forms. At scheduled intervals, necropsy and histopathology can be performed as described by Cohen, vide supra, in a sub-set of animals.
Without wishing to be bound by theory, pharmaceutical compositions of the type described herein are not expected to elicit any significant or appreciable degree of inflammatory response or cause necrosis. Histological examination may reveal the microparticles to be localized and agglomerated within the epidural space at the site of injection with no evidence of the presence of the injection vehicle after 2 about days. Contents of the treated epidural pocket can be recovered by dissection. The injected microparticles can be isolated from epidural tissue and assayed for drug concentration to determine an in-vivo elution profile. It can be reasonably expected that dexamethasone acetate will be released continuously over 12 weeks, with about 20% of the drug released in 3 days, 50% in 25 days, and 80% in 70 days, with complete microparticle polymer degradation in about 16 weeks.

9 alpha-fluoro-11-beta, 17-alpha, 21-trihydroxy-16 alpha-methylpregna-1,4-diene-3,20-dione 21-acetate [dexamethasone acetate]
duration of continuous release in-vitro [1]: 12 weeks | drug released in-vitro ([1]; in 3 days): about 10% | drug released in-vitro ([1]; in 25 days): ~25% | drug released in-vitro ([1]; in 70 days): ~40% | duration of continuous release in-vivo [2]: 12 weeks | time to complete microparticle polymer degradation [2]: about 16 weeks | drug released in-vivo (elution profile) ([2]; in 3 days): about 20% | drug released in-vivo (elution profile) ([2]; in 25 days): ~50% | drug released in-vivo (elution profile) ([2]; in 70 days): ~80%
